Reference: patent US20150250172A1, “USE OF ANTHRANILAMIDE COMPOUNDS IN SOIL AND SEED TREATMENT APPLICATION METHODS” (BASF SE, priority 2012, published 2015)

How the values were obtained:
[1] = system: Western Corn Rootworm (Diabrotica virgifera virgifera); test: whole plant or invertebrate; type: in vivo; conditions: 72 h, 50 ppm a.i./soil (w/w), second-instar larvae, 3 days after infestation, read-out: mortality in comparison with untreated controls
[2] = system: Black Cutworm (Agrotis ipsilon); test: whole plant or invertebrate; type: in vivo; conditions: 72 h, 5 ppm a.i./soil (w/w), second-instar larvae, 3 days after infestation, read-out: mortality in comparison with untreated controls
[3] = system: western corn rootworm (Chrysomelidae: Diabrotica virgifera virgifera); test: Plant emergence, shoot height and root mass, corn seed treatment against western corn rootworm (B.2.2); type: in vivo; conditions: for % Control (Based on root mass relative to infested and uninfested control) / % Control (Based on shoot height relative to infested and uninfested control) / Mean Root Mass / Mean Shoot Height: 7 days after infestation
Method: B.2.2 Plant Emergence, Shoot Height and Root Mass in Treatment Against Western Corn Rootworm (Chrysomelidae: Diabrotica virgifera virgifera). The compounds according to the invention, in formulated form, and other diamide compounds (chlorantraniliprole: Altacor® and Coragen®) were tested for activity against western corn rootworm. Pots were filled with soil mixture (1:1 loamy sand:sand) and watered prior to treatment and planting. Formulations were diluted in distilled water and then applied to 20 g corn seed in a volume of 188 μl in a Hege 11 liquid seed treater and spun for 30 s. One seed was planted per pot 1-3 days after treatment. Five replicates (pots) were prepared for each treatment. Pots were arranged in a randomized complete block design in the greenhouse and top watered daily. At 5-6 days after planting (DAP), 12 western corn rootworm larvae (2nd instar) were infested in each pot. After infestation, pots were maintained in a growth chamber (26° C., 10 hours light:14 hours dark) and bottom-watered as needed. Plant emergence and shoot phytotoxicity were evaluated 5 DAP. Shoot height and fresh root mass were evaluated 7 days after infestation (DAI).

[4] = system: seedcorn maggot (Anthomyiidae: Delia platura); test: Root length of cucumber in treatment against seedcorn maggot (B.2.1); conditions: 9 days after treatment, 7 days after infestation; for % Control (Relative to infested and uninfested solvent blank): cucumber root length; for Mean Root Length: cucumber
[5] = Table EXP-B.2.2-1, 0.5 g ai/kg seed, 13 days after planting
[6] = Table EXP-B.2.2-1, 1.0 g ai/kg seed, 13 days after planting
[7] = Table EXP-B.2.2-1, corn seed treatment, 0.5 g ai/kg seed
[8] = Table EXP-B.2.2-1, corn seed treatment, 1.0 g ai/kg seed
[9] = Table EXP-B.2.2-2, 0.5 g ai/kg seed, 12 days after planting
[10] = Table EXP-B.2.2-2, 1.0 g ai/kg seed, 12 days after planting
[11] = Table EXP-B.2.2-2, corn seed treatment, 0.5 g ai/kg seed
[12] = Table EXP-B.2.2-2, corn seed treatment, 1.0 g ai/kg seed
[13] = Table EXP-B.2.2-2, 1.5 g ai/kg seed, 12 days after planting

Compound	mortality at 50 ppm [1]	mortality at 5 ppm [2]	% Control (Based on root mass relative to infested and uninfested control) [3, 5]	% Control (Based on shoot height relative to infested and uninfested control) [3, 5]	Mean Root Mass [3, 5]	Mean Shoot Height [3, 5]	% Control (Based on root mass relative to infested and uninfested control) [3, 6]	% Control (Based on shoot height relative to infested and uninfested control) [3, 6]	Mean Root Mass [3, 6]	Mean Shoot Height [3, 6]	Plant Emergence (%) 5 days after planting [3, 7]	Plant Emergence (%) 5 days after planting [3, 8]	% Control (Based on root mass relative to infested and uninfested control) [3, 9]	% Control (Based on shoot height relative to infested and uninfested control) [3, 9]	Mean Root Mass [3, 9]	Mean Shoot Height [3, 9]	% Control (Based on root mass relative to infested and uninfested control) [3, 10]	Plant Emergence (%) 5 days after planting [3, 11]	% Control (Relative to infested and uninfested solvent blank) ([4]; rate 1 ppm)	Mean Root Length ([4]; rate 1 ppm)	further results
CCS(CC)=NC(=O)c1cc(Cl)cc(C)c1NC(=O)c1cc(C(F)(F)F)nn1-c1ncccc1Cl [Compound I-11, 2-(3-chloro-2-pyridyl)-N-[2-methyl-4-chloro-6-[(diethyl-λ^4-sulfanylidene)carbamoyl]phenyl]-5-(trifluoromethyl)pyrazole-3-carboxamide]	> 70%	> 70%	100%	36%	0.680 g	26.7 cm	100%	100%	0.678 g	33.8 cm	100%	100%	12%	49%	0.490 g	27.3 cm	48%	100%			% Control (Based on shoot height relative to infested and uninfested control) [3, 10]: 100%; Mean Root Mass [3, 10]: 0.631 g; Mean Shoot Height [3, 10]: 33.8 cm; Plant Emergence (%) 5 days after planting [3, 12]: 100%
CCS(CC)=NC(=O)c1cc(Cl)cc(Cl)c1NC(=O)c1cc(C(F)(F)F)nn1-c1ncccc1Cl [Compound I-16, 2-(3-chloro-2-pyridyl)-N-[2,4-dichloro-6-[(diethyl-λ^4-sulfanylidene)carbamoyl]phenyl]-5-(trifluoromethyl)pyrazole-3-carboxamide]	> 70%	> 70%	37%	76%	0.541 g	30.2 cm	40%	58%	0.547 g	28.6 cm	100%	100%	38%	100%	0.590 g	35.3 cm	68%	100%	100%	11.0 cm	% Control (Based on shoot height relative to infested and uninfested control) [3, 10]: 83%; Mean Root Mass [3, 10]: 0.705 g; Mean Shoot Height [3, 10]: 31.2 cm; Plant Emergence (%) 5 days after planting [3, 12]: 100%
Cc1cc(Cl)cc(C(=O)N=S(C(C)C)C(C)C)c1NC(=O)c1cc(C(F)(F)F)nn1-c1ncccc1Cl [Compound I-21, 2-(3-chloro-2-pyridyl)-N-[2-methyl-4-chloro-6-[(bis-2-propyl-λ^4-sulfanylidene)carbamoyl]phenyl]-5-(trifluoromethyl)pyrazole-3-carboxamide]	> 70%	> 70%	100%	49%	0.688 g	27.8 cm	100%	69%	0.701 g	29.6 cm	100%	100%	33%	86%	0.570 g	31.6 cm		100%			% Control (Based on root mass relative to infested and uninfested control) [3, 13]: 40%; % Control (Based on shoot height relative to infested and uninfested control) [3, 13]: 83%; Mean Root Mass [3, 13]: 0.598 g; Mean Shoot Height [3, 13]: 31.2 cm; Plant Emergence (%) 5 days after planting ([3]; Table EXP-B.2.2-2, corn seed treatment, 1.5 g ai/kg seed): 100%
CC(C)S(=NC(=O)c1cc(Cl)cc(Cl)c1NC(=O)c1cc(C(F)(F)F)nn1-c1ncccc1Cl)C(C)C [Compound I-26, 2-(3-chloro-2-pyridyl)-N-[2,4-dichloro-6-[(bis-2-propyl-λ^4-sulfanylidene)carbamoyl]phenyl]-5-(trifluoromethyl)pyrazole-3-carboxamide]	> 70%	> 70%																			
CNC(=O)c1cc(Cl)cc(C)c1NC(=O)c1cc(Br)nn1-c1ncccc1Cl [chlorantraniliprole]																			49%	8.4 cm	% Control (Relative to infested and uninfested solvent blank) ([4]; rate 10 ppm): 63%; Mean Root Length ([4]; rate 10 ppm): 9.0 cm
CNC(=O)c1cc(C#N)cc(C)c1NC(=O)c1cc(Br)nn1-c1ncccc1Cl [cyantraniliprole]																			19%	7.1 cm	% Control (Relative to infested and uninfested solvent blank) ([4]; rate 10 ppm): 93%; Mean Root Length ([4]; rate 10 ppm): 10.3 cm
